26 molecules from patent publication US20200055839A1 (priority 2017, published 2020) can be followed below.

The test has as its system NL-RLuc virus. The test is described as follows: Inhibition of HIV replication (NL-RLuc virus, luciferase readout in MT-2 cells). It is filed as cell-based. Conditions: Human immunodeficiency virus 1, MT2, 120 h, MT-2 cells infected with NL-RLuc virus, 5 days of incubation, 10% FBS, at least 2 experiments. A digest of the protocol:
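MT-2 cells infected with NL4-3-derived virus carrying Renilla luciferase in place of part of nef, grown 5 days with serial compound dilutions in RPMI 1640/10% FBS. Virus growth read as luciferase expression. EC50 from median effect equation, at least 2 experiments.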
The EC50 is the concentration giving half of the maximal effect. Higher therefore signals a less potent agent. `CC1(C)CCN(c2c(-c3ccc(OCCc4ccc(F)cc4)c(F)c3)c(CN3CCC4(CCC4)CC3)nc(Cl)c2[C@H](OC(C)(C)C)C(=O)O)CC1` [Example 210, (S)-2-(6-((7-Azaspiro[3.5]nonan-7-yl)methyl)-2-chloro-4-(4,4-dimethylpiperidin-1-yl)-5-(3-fluoro-4-(4-fluorophenethoxy)phenyl)pyridin-3-yl)-2-(tert-butoxy)acetic acid] yielded a half-maximal effective concentration (EC50) of 2 nM.
The molecule `CC1(C)CCN(c2c(-c3ccc(OCCc4ccc(F)cc4)cc3)cnc(Cl)c2[C@H](OC(C)(C)C)C(=O)O)CC1` [Example 211, (S)-2-(tert-Butoxy)-2-(2-chloro-4-(4,4-dimethylpiperidin-1-yl)-5-(4-(4-fluorophenethoxy)phenyl)pyridin-3-yl)acetic acid] registered an EC50 of 3 nM.
`CC1(C)CCN(c2c(-c3ccc(OCCc4ccc(F)cc4)cc3)c(CO)nc(Cl)c2[C@H](OC(C)(C)C)C(=O)O)CC1` [Example 212, (S)-2-(tert-Butoxy)-2-(2-chloro-4-(4,4-dimethylpiperidin-1-yl)-5-(4-(4-fluorophenethoxy)phenyl)-6-(hydroxymethyl)pyridin-3-yl)acetic acid] came in with a 50% effective concentration (EC50) of 0.3 nM. Compared with the last molecule, the EC50 is about 10-fold lower.
As for `CN(Cc1nc(Cl)c([C@H](OC(C)(C)C)C(=O)O)c(N2CCC(C)(C)CC2)c1-c1ccc(OCCc2ccc(F)cc2)cc1)CC1CCOCC1` [Example 213, (S)-2-(tert-Butoxy)-2-(2-chloro-4-(4,4-dimethylpiperidin-1-yl)-5-(4-(4-fluorophenethoxy)phenyl)-6-((methyl((tetrahydro-2H-pyran-4-yl)methyl)amino)methyl)pyridin-3-yl)acetic acid], the figure is 0.6 nM.
Take `CC1(C)CCN(c2c(-c3ccc(OCCc4ccc(F)cc4)c(F)c3)cnc(Cl)c2[C@H](OC(C)(C)C)C(=O)O)CC1` [Example 214, (S)-2-(tert-Butoxy)-2-(2-chloro-4-(4,4-dimethylpiperidin-1-yl)-5-(3-fluoro-4-(4-fluorophenethoxy)phenyl)pyridin-3-yl)acetic acid]: the EC50 was determined as 9 nM.
For `CC1(C)CCN(c2c(-c3ccc(OCCc4ccc(F)cc4)c(F)c3)cnc(C#N)c2[C@H](OC(C)(C)C)C(=O)O)CC1` [Example 217, (S)-2-(tert-Butoxy)-2-(2-cyano-4-(4,4-dimethylpiperidin-1-yl)-5-(3-fluoro-4-(4-fluorophenethoxy)phenyl)pyridin-3-yl)acetic acid], a half-maximal effect (EC50) was put at 10 nM.
As for `Cc1ncc(-c2ccc(CNc3ncnc4c3oc3ccccc34)c(F)c2)c(N2CCC(C)(C)CC2)c1[C@H](OC(C)(C)C)C(=O)O` [Example 218, (S)-2-(5-(4-((Benzofuro[3,2-d]pyrimidin-4-ylamino)methyl)-3-fluorophenyl)-4-(4,4-dimethylpiperidin-1-yl)-2-methylpyridin-3-yl)-2-(tert-butoxy)acetic acid], the figure is 0.2 nM; as for `Cc1ncc(-c2cc(F)c(CNc3ncnc4c3oc3ccccc34)c(F)c2)c(N2CCC(C)(C)CC2)c1[C@H](OC(C)(C)C)C(=O)O` [Example 219, (S)-2-(5-(4-((Benzofuro[3,2-d]pyrimidin-4-ylamino)methyl)-3,5-difluorophenyl)-4-(4,4-dimethylpiperidin-1-yl)-2-methylpyridin-3-yl)-2-(tert-butoxy)acetic acid], 2 nM.
As for `CN(Cc1ccc(-c2cnc(Cl)c([C@H](OC(C)(C)C)C(=O)O)c2N2CCC(C)(C)CC2)cc1)c1ncnc2c1oc1ccccc12` [Example 220, (S)-2-(5-(4-((Benzofuro[3,2-d]pyrimidin-4-yl(methyl)amino)methyl)phenyl)-2-chloro-4-(4,4-dimethylpiperidin-1-yl)pyridin-3-yl)-2-(tert-butoxy)acetic acid], the figure is 2 nM.
In the case of `CC1(C)CCN(c2c(-c3ccc(CNc4ncnc5c4oc4ccccc45)c(F)c3)cnc(Cl)c2[C@H](OC(C)(C)C)C(=O)O)CC1` [Example 221, (S)-2-(5-(4-((Benzofuro[3,2-d]pyrimidin-4-ylamino)methyl)-3-fluorophenyl)-2-chloro-4-(4,4-dimethylpiperidin-1-yl)pyridin-3-yl)-2-(tert-butoxy)acetic acid], the EC50 amounted to 0.3 nM. This EC50 lies about 6.7-fold lower than the previous one.
Molecule `CC1(C)CCN(c2c(-c3ccc(OCCc4ccc(F)cc4)cc3)cnc(C#N)c2[C@H](OC(C)(C)C)C(=O)O)CC1` [Example 222, (S)-2-(tert-Butoxy)-2-(2-cyano-4-(4,4-dimethylpiperidin-1-yl)-5-(4-(4-fluorophenethoxy)phenyl)pyridin-3-yl)acetic acid] gave an EC50 of 8 nM.
As for `CC1(C)CCN(c2c(-c3ccccn3)cnc(Cl)c2[C@H](OC(C)(C)C)C(=O)O)CC1` [Example 223, (2S)-2-(tert-Butoxy)-2-[6′-chloro-4′-(4,4-dimethylpiperidin-1-yl)-[2, 3′-bipyridine]-5′-yl]acetic acid], the figure is 15 nM.
Turning to `CC1(C)CCN(c2c(-c3ccc(OCCc4ccc(F)cc4)cn3)cnc(Cl)c2[C@H](OC(C)(C)C)C(=O)O)CC1` [Example 225, (2S)-2-(tert-Butoxy)-2-[6′-chloro-4′-(4,4-dimethylpiperidin-1-yl)-5-[2-(4-fluorophenyl)ethoxy]-[2, 3′-bipyridine]-5′-yl]acetic acid], the concentration for a half-maximal effect (EC50) was 1 nM.
As for `CCC(C)(C)O[C@H](C(=O)O)c1c(C)ncc(-c2ccc(OCCc3ccc(F)cc3)c(F)c2)c1N1CCC(C)(C)CC1` [Example 226, (S)-2-(4-(4,4-Dimethylpiperidin-1-yl)-5-(3-fluoro-4-(4-fluorophenethoxy)phenyl)-2-methylpyridin-3-yl)-2-(tert-pentyloxy)acetic acid], the figure is 5 nM; as for `COc1cnc(-c2cnc(C)c([C@H](OC(C)(C)C)C(=O)O)c2N2CCC(C)(C)CC2)nc1` [Example 228, (S)-2-(tert-Butoxy)-2-(4-(4,4-dimethylpiperidin-1-yl)-5-(5-methoxypyrimidin-2-yl)-2-methylpyridin-3-yl)acetic acid], 52 nM; as for `COc1ccc(-c2cnc(C)c([C@H](OC(C)(C)C)C(=O)O)c2N2CCC(C)(C)CC2)nc1` [Example 229, (S)-2-(tert-Butoxy)-2-(4′-(4,4-dimethylpiperidin-1-yl)-5-methoxy-6′-methyl-[2, 3′-bipyridin]-5′-yl)acetic acid], 13 nM.
Under `Cc1nc(CO)c(-c2ccc(OCCc3ccc(F)cc3)c(F)c2)c(N2CCC(C)(C)CC2)c1[C@H](OC(C)(C)C)C(=O)O` [Example 230, (S)-2-(tert-Butoxy)-2-(4-(4,4-dimethylpiperidin-1-yl)-5-(3-fluoro-4-(4-fluorophenethoxy)phenyl)-6-(hydroxymethyl)-2-methylpyridin-3-yl)acetic acid] stands 3 nM; under `Cc1nc(CN2CCC3(CCC3)CC2)c(-c2ccc(OCCc3ccc(F)cc3)c(F)c2)c(N2CCC(C)(C)CC2)c1[C@H](OC(C)(C)C)C(=O)O` [Example 231, (S)-2-(6-((7-Azaspiro[3.5]nonan-7-yl)methyl)-4-(4,4-dimethylpiperidin-1-yl)-5-(3-fluoro-4-(4-fluorophenethoxy)phenyl)-2-methylpyridin-3-yl)-2-(tert-butoxy)acetic acid], 0.6 nM.
On to `Cc1nc(-c2cnc(C)c([C@H](OC(C)(C)C)C(=O)O)c2N2CCC(C)(C)CC2)ccc1OCCc1ccc(F)cc1` [Example 232, (S)-2-(tert-Butoxy)-2-(4′-(4,4-dimethylpiperidin-1-yl)-5-(4-fluorophenethoxy)-6, 6′-dimethyl-[2, 3′-bipyridin]-5′-yl)acetic acid], for which the midpoint of the response, the EC50, lay at 6 nM. This EC50 lies about 10-fold higher than the previous one.
In turn, `Cc1ncc(-c2ncc(OCCc3ccc(F)cc3)cc2F)c(N2CCC(C)(C)CC2)c1[C@H](OC(C)(C)C)C(=O)O` [Example 233, (S)-2-(tert-Butoxy)-2-(4′-(4,4-dimethylpiperidin-1-yl)-3-fluoro-5-(4-fluorophenethoxy)-6′-methyl-[2, 3′-bipyridin]-5′-yl)acetic acid] had an EC50 of 2 nM.
As for `Cc1ncc(-c2cnc(OCCc3ccc(Cl)cc3Cl)c(F)c2)c(N2CCC(C)(C)CC2)c1[C@H](OC(C)(C)C)C(=O)O` [Example 234, (S)-2-(tert-Butoxy)-2-(6′-(2,4-dichlorophenethoxy)-4-(4,4-dimethylpiperidin-1-yl)-5′-fluoro-6-methyl-[3, 3′-bipyridin]-5-yl)acetic acid], the figure is 4 nM; as for `Cc1ncc(-c2ccc(OCCc3ccc(F)cc3)c(Cl)c2)c(N2CCC(C)(C)CC2)c1[C@H](OC(C)(C)C)C(=O)O` [Example 235, (S)-2-(tert-Butoxy)-2-(5-(3-chloro-4-(4-fluorophenethoxy)phenyl)-4-(4,4-dimethylpiperidin-1-yl)-2-methylpyridin-3-yl)acetic acid], 2 nM.
Under `Cc1ncc(-c2cnc(OCCc3ccccc3Cl)c(F)c2)c(N2CCC(C)(C)CC2)c1[C@H](OC(C)(C)C)C(=O)O` [Example 238, (S)-2-(tert-Butoxy)-2-(6′-(2-chlorophenethoxy)-4-(4,4-dimethylpiperidin-1-yl)-5′-fluoro-6-methyl-[3, 3′-bipyridin]-5-yl)acetic acid] stands 2 nM; under `Cc1ncc(-c2cnc(OCCc3c(F)cccc3Cl)c(F)c2)c(N2CCC(C)(C)CC2)c1[C@H](OC(C)(C)C)C(=O)O` [Example 239, (S)-2-(tert-Butoxy)-2-(6′-(2-chloro-6-fluorophenethoxy)-4-(4,4-dimethylpiperidin-1-yl)-5′-fluoro-6-methyl-[3, 3′-bipyridin]-5-yl)acetic acid], 3 nM.
As for `Cc1ncc(-c2cnc(OCCc3ccccc3)c(F)c2)c(N2CCC(C)(C)CC2)c1[C@H](OC(C)(C)C)C(=O)O` [Example 240, (S)-2-(tert-Butoxy)-2-(4-(4,4-dimethylpiperidin-1-yl)-5′-fluoro-6-methyl-6′-phenethoxy-[3,3′-bipyridin]-5-yl)acetic acid], the figure is 1 nM.
Consider `Cc1ncc(-c2ccc(OCCc3ccc(F)cc3)c(C(F)(F)F)c2)c(N2CCC(C)(C)CC2)c1[C@H](OC(C)(C)C)C(=O)O` [Example 241, (S)-2-(tert-Butoxy)-2-(4-(4,4-dimethylpiperidin-1-yl)-5-(4-(4-fluorophenethoxy)-3-(trifluoromethyl)phenyl)-2-methylpyridin-3-yl)acetic acid], for which the EC50 came to 7 nM.
